Measured values published in the NIST ThermoML archive (doi:10.1016/j.jct.2012.03.002).

Legend:
[1] = 298.15 K, 101 kPa, Liquid; for viscosity: Capillary tube (Ostwald / Ubbelohde) method; for mass density: Vibrating tube method
[2] = refractive index (Na D-line) (dimensionless); conditions: 298.15 K; 101 kPa; Liquid; Standard Abbe refractometry
[3] = wn = mass fraction of the nth substance listed; conditions: 298.15 K, 101 kPa, Liquid; for viscosity: Capillary tube (Ostwald / Ubbelohde) method; for mass density: Vibrating tube method
[4] = refractive index (Na D-line) (dimensionless); wn = mass fraction of the nth substance listed; conditions: 298.15 K, 101 kPa, Liquid, Standard Abbe refractometry
[5] = refractive index (Na D-line) (dimensionless); cn = amount concentration of the nth substance listed, in mol/dm3; conditions: 298.15 K, 101 kPa, Liquid, Standard Abbe refractometry
[6] = cn = amount concentration of the nth substance listed, in mol/dm3; conditions: 298.15 K, 101 kPa, Liquid, Alternating current cell with electrodes

O=[N+]([O-])c1ccccc1 [nitrobenzene]
Conditions | mass density [kg/m3] | refractive index | viscosity [mPa·s]
[1] | 1197.7 | – | 1.809
[2] | – | 1.5493 | –

O=[N+]([O-])c1ccccc1 [nitrobenzene] + C[N+](=O)[O-]
w2 = 0
Conditions | mass density [kg/m3] | refractive index | viscosity [mPa·s]
[3] | 1197.7 | – | 1.809
[4] | – | 1.5493 | –

O=[N+]([O-])c1ccccc1 [nitrobenzene] + [Na+].c1ccc([B-](c2ccccc2)(c2ccccc2)c2ccccc2)cc1
Conditions | refractive index
[5], c2 = 0 | 1.5493

C[N+](=O)[O-] [nitromethane]
Conditions | mass density [kg/m3] | refractive index | viscosity [mPa·s]
[1] | 1128.8 | – | 0.614
[2] | – | 1.3799 | –

C[N+](=O)[O-] [nitromethane] + O=[N+]([O-])c1ccccc1
Conditions | mass density, [3] [kg/m3] | refractive index, [4] | viscosity, [3] [mPa·s]
w1 = 0.25 | 1178.4 | 1.5051 | 0.918
w1 = 0.5 | 1161.1 | 1.4623 | 0.827
w1 = 0.75 | 1144.7 | 1.4201 | 0.745
w1 = 1 | 1128.8 | 1.3799 | 0.614

C[N+](=O)[O-] [nitromethane] + [Na+].c1ccc([B-](c2ccccc2)(c2ccccc2)c2ccccc2)cc1
Conditions | refractive index
[5], c2 = 0 | 1.3799

[Na+].c1ccc([B-](c2ccccc2)(c2ccccc2)c2ccccc2)cc1 [sodium tetraphenylboron] + C[N+](=O)[O-]
Conditions | molar conductivity [S·m2/mol] | refractive index
[5], c1 = 0.0044 | – | 1.3803
[5], c1 = 0.0178 | – | 1.3811
[5], c1 = 0.0313 | – | 1.3819
[5], c1 = 0.0449 | – | 1.3826
[5], c1 = 0.0586 | – | 1.3837
[6], c1 = 0.001163 | 0.008583 | –
[6], c1 = 0.002132 | 0.008413 | –
[6], c1 = 0.002952 | 0.008296 | –
[6], c1 = 0.003655 | 0.008195 | –
[6], c1 = 0.004797 | 0.008057 | –
[6], c1 = 0.005686 | 0.007972 | –
[6], c1 = 0.006397 | 0.007909 | –
[6], c1 = 0.006701 | 0.007878 | –
[6], c1 = 0.007231 | 0.007825 | –
[6], c1 = 0.007676 | 0.007789 | –
[6], c1 = 0.008055 | 0.00776 | –
[6], c1 = 0.008382 | 0.007739 | –

[Na+].c1ccc([B-](c2ccccc2)(c2ccccc2)c2ccccc2)cc1 [sodium tetraphenylboron] + O=[N+]([O-])c1ccccc1
Conditions | molar conductivity [S·m2/mol] | refractive index
[5], c1 = 0.0042 | – | 1.5498
[5], c1 = 0.0168 | – | 1.5506
[5], c1 = 0.0295 | – | 1.5511
[5], c1 = 0.0423 | – | 1.5518
[5], c1 = 0.0552 | – | 1.5526
[6], c1 = 0.001579 | 0.00273 | –
[6], c1 = 0.002187 | 0.002689 | –
[6], c1 = 0.002707 | 0.00266 | –
[6], c1 = 0.003159 | 0.002634 | –
[6], c1 = 0.003902 | 0.002597 | –
[6], c1 = 0.004489 | 0.002572 | –
[6], c1 = 0.004964 | 0.002553 | –
[6], c1 = 0.005966 | 0.002516 | –
[6], c1 = 0.006419 | 0.0025 | –
[6], c1 = 0.006844 | 0.002482 | –
[6], c1 = 0.00722 | 0.002471 | –
[6], c1 = 0.007448 | 0.002463 | –
